This passage reports GI50 and TGI results from PubChem BioAssay (NCI).

“And” between values parts separate entries of the source, which are not always exact repeats. Equal values may be shown once.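 Test compounds were applied to cells in 96-well plates for 48 hours at 5 doses. GI50 = concentration required for 50% inhibition of growth. TGI: concentration producing complete growth inhibition.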

Test systems include 786-0 renal; ACHN renal; EKVX NSCLC; MALME-3M melanoma; SK-MEL-2 melanoma; SK-OV-3 ovarian; SN12C renal; SW-620 colon; TK-10 renal; UACC-62 melanoma.
Holding throughout (assay): DTP human tumour cell line panel, 48 h

Turning to `COc1ccccc1OCC(O)CO` (stereo not given), the GI50 in the test on 786-0 renal, with ACHN renal, in the test with EKVX NSCLC, in the test on MALME-3M melanoma, in the test on SK-MEL-2 melanoma and in the test on SK-OV-3 ovarian was above 100 µM in each case. Also, the GI50 in the test with SN12C renal, in the test on SW-620 colon, with TK-10 renal and in the test with UACC-62 melanoma was above 100 µM each time. Further, the TGI in the test with 786-0 renal, with ACHN renal, in the test with EKVX NSCLC, with MALME-3M melanoma, with SK-MEL-2 melanoma and with SK-OV-3 ovarian was above 100 µM in each case. The TGI in the test with SN12C renal, in the test with SW-620 colon, with TK-10 renal and in the test on UACC-62 melanoma was above 100 µM throughout.
`O=C(O)CNS(=O)(=O)c1ccc(NC(=O)c2cccc([N+](=O)[O-])c2)cc1`: the TGI in the test on 786-0 renal, in the test with ACHN renal, in the test with EKVX NSCLC, with MALME-3M melanoma, in the test on SK-MEL-2 melanoma and in the test on SK-OV-3 ovarian was above 100 µM throughout. Besides, the TGI with SN12C renal, in the test on SW-620 colon, in the test with TK-10 renal and in the test on UACC-62 melanoma was above 100 µM each time.
`COS(=O)CCOC(=O)c1ccccc1SSc1ccccc1C(=O)OCCS(=O)OC` (stereo not given): the TGI (usually the concentration giving total growth inhibition) with 786-0 renal is 38.2 µM; in the test on ACHN renal, above 100 µM; in the test with EKVX NSCLC it was above 100 µM; with MALME-3M melanoma, 63.7 µM; in the test on SK-MEL-2 melanoma, above 100 µM; in the test on SK-OV-3 ovarian it was above 100 µM. Moreover, the TGI in the test with SN12C renal was 85.9 µM; with SW-620 colon, 87.4 µM; in the test on TK-10 renal it was above 100 µM; with UACC-62 melanoma it was 51.5 µM.
Consider `NC(=O)Cn1c(=O)[nH]c(=O)c2[nH]cnc21`, for which the TGI in the test with 786-0 renal, with ACHN renal, in the test with EKVX NSCLC, in the test on MALME-3M melanoma, in the test on SK-MEL-2 melanoma and with SK-OV-3 ovarian was above 100 µM in each case. For the same compound, the TGI in the test on SN12C renal, in the test with SW-620 colon, in the test with TK-10 renal and in the test with UACC-62 melanoma was above 100 µM in each case.
For the compound `O=c1c2c(=NCCCN3CCCC3)cc3c(=O)n(CCCN4CCCC4)c(=O)c4c(NCCCN5CCCC5)cc(c(O)n1CCCN1CCCC1)c2c4-3`, the GI50 (as a rule, the concentration giving 50% growth inhibition) was 12.9 µM in the test on 786-0 renal; 2.55 µM in the test on ACHN renal; 2.79 µM in the test with EKVX NSCLC; 2.73 µM in the test on MALME-3M melanoma; 2.22 µM with SK-MEL-2 melanoma; 2.4 µM with SK-OV-3 ovarian. The GI50 was 3.11 µM in the test with SN12C renal, 1.72 µM in the test with SW-620 colon, 2.22 µM in the test on TK-10 renal and 2.34 µM in the test with UACC-62 melanoma. Besides, the TGI in the test with 786-0 renal is above 100 µM; in the test on ACHN renal, 26.4 µM; in the test on EKVX NSCLC, 12.9 µM; in the test on MALME-3M melanoma it was 7.98 µM; in the test on SK-MEL-2 melanoma, 6.57 µM; in the test with SK-OV-3 ovarian, 6.93 µM. Besides, the TGI in the test with SN12C renal was found to be 34.2 µM; in the test on SW-620 colon it was 14.5 µM; in the test on TK-10 renal, 8.65 µM; with UACC-62 melanoma, 5.12 µM.
Regarding `O=C(O)C(O)C(O)C1[O][Sb][O]C1CO` (stereo not given), the GI50 is above 100 µM in the test with 786-0 renal; above 100 µM in the test on ACHN renal; above 100 µM in the test on EKVX NSCLC; 23.6 µM and 7.62 µM with MALME-3M melanoma; 85.8 µM and 36.8 µM with SK-MEL-2 melanoma; above 100 µM in the test on SK-OV-3 ovarian. For the same compound, the GI50 with SN12C renal, in the test on SW-620 colon, with TK-10 renal and with UACC-62 melanoma was above 100 µM each time. Besides, the TGI was above 100 µM in the test on 786-0 renal; above 100 µM with ACHN renal; above 100 µM in the test on EKVX NSCLC; 68.3 µM and 23.6 µM in the test on MALME-3M melanoma; above 100 µM in the test with SK-MEL-2 melanoma; above 100 µM with SK-OV-3 ovarian. Moreover, the TGI in the test with SN12C renal, in the test on SW-620 colon, in the test on TK-10 renal and with UACC-62 melanoma was above 100 µM throughout.
For `Cc1cc(C(=O)NCCN(C)C)c2nc3ccccc3nc2c1`, the TGI in the test with 786-0 renal was above 61.9 µM; in the test with ACHN renal it was above 51 µM; in the test on EKVX NSCLC, 43.5 µM; in the test with MALME-3M melanoma it was 13.8 µM; with SK-MEL-2 melanoma, 17.2 µM; in the test with SK-OV-3 ovarian, above 46 µM. Further, the TGI in the test with SN12C renal was 43.7 µM; with SW-620 colon it was above 37.4 µM; in the test with TK-10 renal it was above 59.1 µM; in the test with UACC-62 melanoma, 18.7 µM.
Consider `Cn1cc(/C=C2\C(=O)Nc3cccnc32)c2ccccc21`, for which the GI50 in the test with 786-0 renal was above 25 µM; in the test on ACHN renal, 11.5 µM; in the test on EKVX NSCLC, 11.1 µM; in the test on MALME-3M melanoma it was 24.5 µM; in the test on SK-MEL-2 melanoma it was 11.6 µM; in the test on SK-OV-3 ovarian, 17 µM. Besides, the GI50 is 9.88 µM with SN12C renal, 12.6 µM in the test on SW-620 colon, 12.3 µM in the test with TK-10 renal and 8.82 µM in the test with UACC-62 melanoma. The total growth inhibition concentration (TGI) with 786-0 renal, in the test with ACHN renal, in the test on EKVX NSCLC, with MALME-3M melanoma, in the test with SK-MEL-2 melanoma and in the test on SK-OV-3 ovarian was above 25 µM in each case. In addition, the TGI with SN12C renal, with SW-620 colon, with TK-10 renal and in the test on UACC-62 melanoma was above 25 µM each time.
For `O=C(O)C1C2CC3CC2CC31` (stereo not given), the TGI in the test with 786-0 renal, in the test on ACHN renal, in the test on EKVX NSCLC, in the test on MALME-3M melanoma, in the test with SK-MEL-2 melanoma and with SK-OV-3 ovarian was above 100 µM each time. Further, the TGI in the test on SN12C renal, in the test with SW-620 colon, with TK-10 renal and in the test with UACC-62 melanoma was above 100 µM in each case.
`Cc1nc(Nc2ccc([N+](=O)[O-])cc2)sc1C(=O)/C=C/c1ccc(N(C)C)cc1`: the concentration for total growth inhibition (TGI) in the test with 786-0 renal, in the test with ACHN renal, with EKVX NSCLC, in the test with MALME-3M melanoma, in the test with SK-MEL-2 melanoma and in the test on SK-OV-3 ovarian was above 100 µM in each case. Moreover, the TGI in the test with SN12C renal, in the test with SW-620 colon, with TK-10 renal and in the test on UACC-62 melanoma was above 100 µM throughout.
On to `C/C(=N\n1c(N)c(C#N)c(-c2ccc(Cl)cc2)c(C#N)c1=O)c1cccnc1`, for which the GI50 with 786-0 renal, in the test with ACHN renal, with EKVX NSCLC, in the test on MALME-3M melanoma, in the test on SK-MEL-2 melanoma and in the test on SK-OV-3 ovarian was above 100 µM throughout. For the same compound, the GI50 with SN12C renal, with SW-620 colon, with TK-10 renal and in the test on UACC-62 melanoma was above 100 µM throughout. The concentration for total growth inhibition (TGI) in the test with 786-0 renal, with ACHN renal, in the test on EKVX NSCLC, in the test on MALME-3M melanoma, in the test on SK-MEL-2 melanoma and in the test with SK-OV-3 ovarian was above 100 µM throughout. Moreover, the concentration for total growth inhibition (TGI) in the test with SN12C renal, in the test with SW-620 colon, in the test with TK-10 renal and in the test with UACC-62 melanoma was above 100 µM each time.
`CN(C)/C(=N/C(=O)Nc1ccccc1)SCc1ccccc1`: the TGI with 786-0 renal, in the test on ACHN renal, in the test on EKVX NSCLC, in the test with MALME-3M melanoma, in the test on SK-MEL-2 melanoma and in the test on SK-OV-3 ovarian was above 100 µM in each case. Moreover, the total growth inhibition concentration (TGI) with SN12C renal, in the test on SW-620 colon, with TK-10 renal and with UACC-62 melanoma was above 100 µM each time.
With `NC(=NC1C2CC3CC(C2)CC1C3)Nc1ccc(I)cc1` (stereo not given), the GI50 was 4.03 µM in the test with 786-0 renal; 2.92 µM in the test on ACHN renal; 3.43 µM with EKVX NSCLC; 2.09 µM with MALME-3M melanoma; 2.63 µM with SK-MEL-2 melanoma; 8.68 µM in the test on SK-OV-3 ovarian. The GI50 in the test on SN12C renal was 3.82 µM; with SW-620 colon, 2.64 µM; in the test on TK-10 renal it was 2.59 µM; with UACC-62 melanoma it was 2.88 µM. Also, the concentration for total growth inhibition (TGI) in the test with 786-0 renal stood at 15.5 µM; in the test with ACHN renal, 9.45 µM; with EKVX NSCLC, 14.3 µM; in the test on MALME-3M melanoma, 5.36 µM; in the test with SK-MEL-2 melanoma, 7.62 µM; with SK-OV-3 ovarian it was 23.3 µM. The concentration for total growth inhibition (TGI) was determined as 14.6 µM in the test on SN12C renal, 11.6 µM in the test with SW-620 colon, 8.85 µM in the test on TK-10 renal and 9.33 µM in the test on UACC-62 melanoma.
As for `CCN(CC)c1ccc(/C=N\NC(=O)c2cccc(Nc3ccnc(C(F)(F)F)c3)c2)c(O)c1`, the GI50 was 0.27 µM in the test on 786-0 renal; 0.218 µM in the test on ACHN renal; 0.219 µM in the test with EKVX NSCLC; 0.348 µM with MALME-3M melanoma; 0.893 µM in the test with SK-MEL-2 melanoma; 0.499 µM with SK-OV-3 ovarian. In addition, the GI50 in the test on SN12C renal was 0.278 µM; with SW-620 colon, 0.366 µM; with TK-10 renal, 0.371 µM; with UACC-62 melanoma, 0.25 µM. For the same compound, the TGI in the test with 786-0 renal is 0.885 µM; in the test with ACHN renal, above 40.4 µM; with EKVX NSCLC it was 3.8 µM; in the test with MALME-3M melanoma it was 4.32 µM; in the test with SK-MEL-2 melanoma, above 41.2 µM; in the test on SK-OV-3 ovarian, above 100 µM. Besides, the TGI with SN12C renal was above 36.5 µM; with SW-620 colon, above 100 µM; in the test with TK-10 renal, above 100 µM; in the test with UACC-62 melanoma it was 1.68 µM.
